{"source": "paper PMC8036603", "about": "“Small Molecule Inhibitors of White Spot Syndrome Virus: Promise in Shrimp Seedling Culture” (International Journal of Molecular Sciences, 2021)", "key": {"[1]": {"system": "Shrimp (L. vannamei) larvae", "assay": "Acute toxicity assay in shrimp larvae", "assay_type": "in vivo, Litopenaeus vannamei", "details": "after 72 h of exposure", "procedure": "Shrimp (L. vannamei) larvae (total length: 0.5 ± 0.04 cm, body weight: 4.2 ± 0.4 mg, mean ± SD) were provided by Zhejiang Mariculture Research Institute Qingjiang Station (Wenzhou, China). The larvae were maintained in a culture pond at 28 °C, fed four times a day with commercial feed pellets, and collected randomly for PCR testing to verify the WSSV-free status prior to the trial.\nAcute toxicity of the coumarin derivatives was investigated by exposing larvae to a range of compound concentrations, from 0.1 mg/L to 100 mg/L of coumarin derivatives, where the dose setting was based on the data from preliminary tests in our laboratory. A DMSO-control (2%, v/v, the highest percentage of DMSO in treatments) served as the control. During the experiment, every 20 larvae were moved into six-well plates filled with 6 mL/per well freshly prepared test solutions for a 72-h incubation at 28 °C with a natural photoperiod. […] To avoid deterioration of water quality, dead shrimps were immediately removed at the point of observation. Three replicate experiments were performed.\nCompound response curves were represented by a logistic sigmoidal function with a maximal effect level (Amax) and Hill coefficient representing the sigmoidal transition (Origin 8.1; http://www.originlab.com, accessed on 25 March 2021). Statistical analyses were performed using SPSS (version 18.0) statistical software (SPSS Inc., Chicago, IL, USA). The LC50 and EC50 values with 95% CIs were calculated using probit analysis. Virus titers were log10-transformed prior to statistical analyses. Unpaired Student’s t-tests were used to compare coumarin-treated samples and negative-control DMSO samples for determining significance and data are presented as mean values ± SD."}, "[2]": {"system": "white spot syndrome virus (WSSV)", "details": "buffer; cited from earlier work"}, "[3]": {"system": "white spot syndrome virus (WSSV)", "assay": "Anti-WSSV activity in shrimp larvae, co-incubation, copy number of viral genome by RT-qPCR", "assay_type": "in vivo, Litopenaeus vannamei"}, "[4]": {"assay": "Solubility / precipitation in aquacultural water", "assay_type": "physicochemical", "procedure": "Prior to evaluation of the anti-WSSV activity of coumarins, the safety doses for larvae needed to be determined. […] In contrast, the electron-withdrawing group was more toxic than the electron-donating group, with the LC50 of A5‒A8 being <5 mg/L at 72 h. […] Based on preliminary analysis of the structure-activity relationship (SAR) of similar spatial structures with different substituents of electron-donating and electron-withdrawing groups to coumarins A1, B1, and C1, we considered that […] of compounds; this provides a basis for further research.\nAll conventional reagents and solvents are purchased directly from commercial companies and no further purification is required. Organic solvents were purchased from Sinopharm chemical reagent Co., Ltd. and purified by distillation and moisture was excluded from the glass apparatus using CaCl2 drying tubes. Throughout this study, silica gel H (200–300 mesh; Qingdao Marine Chemical Factory, Qingdao, China) was used for the column chromatography. For thin layer chromatographic (TLC) plates, Silica gel (GF254) (Qingdao Marine Chemical Factory, Qingdao, China) were used for thin layer chromatographic (TLC) analysis, and all of the spots and bands were detected by UV irradiation (254, 365 nm). The intermediates and products were characterized by electrospray ionization mass spectrometry (TripleTOF5600þ; AB SCIEX Pte. Ltd., Boston, MA, USA), ^1H NMR and ^13C NMR (Bruker AM500 spectrometer; Bruker Corporation, Berne, Switzerland). The derivatives were dissolved in 100% dimethyl sulfoxide (DMSO; Beyotime Biotechnology, Haimen, China), stored at 4 °C prior to antiviral evaluation, and used within 6 months. For solubility, the stock solutions, at a concentration of 50 mg/mL, were sonicated for approximately 10 min to ensure that the derivatives were fully dissolved and mixed."}, "[5]": {"details": "test range 0.4~100 mg/L, aquacultural water, LC50 NONE"}}}
{"molecule": "N#CC1=C(N)Oc2c(c(=O)oc3ccccc23)C1c1ccc([N+](=O)[O-])cc1", "note": "(centres unmarked) [C8]", "values": [{"measurement": "signs of toxicity at the saturation concentration", "setting": "[1]", "result": "No signs of toxicity were observed"}, {"measurement": "half-life in aquacultural and sterilized deionized water", "setting": "[2]", "result": "24 to 48", "unit": "h"}, {"measurement": "EC50", "setting": "[3]; Whispovirus xiabaidian, 72 h, read-out: EC50 (mg/L; 95% CI), median effective concentration, WSSV-infected larvae, copy number of viral genome, 72 h, 95% CI in brackets", "result": 6.6, "unit": "mg/L"}, {"measurement": "inhibitory efficiency on WSSV replication", "setting": "[3]; six-point dose-response, viral genome copy number in larvae", "result": "exceeded 90%"}, {"measurement": "solubility in aquacultural water", "setting": "[4]", "result": "insoluble"}, {"measurement": "lowest precipitation concentration", "setting": "[4]; [5]", "result": "NONE (16) mg/L"}, {"measurement": "lowest precipitation concentration (bracketed value in LC50 48 h column)", "setting": "[4]; [5]", "result": "NONE (16) mg/L"}, {"measurement": "lowest precipitation concentration (bracketed value in LC50 72 h column)", "setting": "[4]; [5]", "result": "NONE (16) mg/L"}]}
